We go through 48 substances from US10279022B2, “Peptides and combination of peptides for use in immunotherapy against various cancers” (immatics biotechnologies GmbH, priority 2015, dated 2019).

The subject of one assay is CD8+ T cells. The assay can be described thus: In vitro T-cell priming assay (aAPCs loaded with peptide/MHC and anti-CD28), pMHC multimer readout. It counts as cell-based, human. The following applies: for Wells positive [%]: in vitro immunogenicity of HLA class I peptides, peptide specific pMHC multimer staining after three stimulation cycles; for in vitro immunogenicity: Wells: positive wells, HLA-A*02 and HLA-A*24 peptides, healthy donors. From the text:
In order to obtain information regarding the immunogenicity of the TUMAPs of the present invention, the inventors performed investigations using an in vitro T-cell priming assay based on repeated stimulations of CD8+ T cells with artificial antigen presenting cells (aAPCs) loaded with peptide/MHC complexes and anti-CD28 antibody.
In order to perform in vitro stimulations by artificial antigen presenting cells loaded with peptide-MHC complex (pMHC) and anti-CD28 antibody, the inventors first isolated CD8+ T cells from fresh HLA-A*02 leukapheresis products via positive selection using CD8 microbeads (Miltenyi Biotec, Bergisch-Gladbach, Germany) of healthy donors obtained from the University clinics Mannheim, Germany, after informed consent.
PBMCs and isolated CD8+ lymphocytes were incubated in T-cell medium (TCM) until use consisting of RPMI-Glutamax (Invitrogen, Karlsruhe, Germany) supplemented with 10% heat inactivated human AB serum (PAN-Biotech, Aidenbach, Germany), 100 U/ml Penicillin/100 μg/ml Streptomycin (Cambrex, Cologne, Germany), 1 mM sodium pyruvate (CC Pro, Oberdorla, Germany), 20 μg/ml Gentamycin (Cambrex). 2.5 ng/ml IL7 (PromoCell, Heidelberg, Germany) and 10 U/ml IL-2 (Novartis Pharma, Nurnberg, Germany) were also added to the TCM at this step.
Generation of pMHC/anti-CD28 coated beads, T-cell stimulations and readout was performed in a highly defined in vitro system using four different pMHC molecules per stimulation condition and 8 different pMHC molecules per readout condition.
The purified co-stimulatory mouse IgG2a anti human CD28 Ab 9.3 (Jung et al., 1987) was chemically biotinylated using Sulfo-N-hydroxysuccinimidobiotin as recommended by the manufacturer (Perbio, Bonn, Germany). Beads used were 5.6 μm diameter streptavidin coated polystyrene particles (Bangs Laboratories, Illinois, USA).
pMHC used for positive and negative control stimulations were A*0201/MLA-001 (peptide […] (SEQ ID NO. 303) from modified Melan-A/MART-1) and A*0201/DDX5-001 ([…] from DDX5, SEQ ID NO. 304), respectively.
800.000 beads/200 μl were coated in 96-well plates in the presence of 4×12.5 ng different biotin-pMHC, washed and 600 ng biotin anti-CD28 were added subsequently in a volume of 200 μl. Stimulations were initiated in 96-well plates by co-incubating 1×10^6 CD8+ T cells with 2×10^5 washed coated beads in 200 μl TCM supplemented with 5 ng/ml IL-12 (PromoCell) for 3 days at 37° C. Half of the medium was then exchanged by fresh TCM supplemented with 80 U/ml IL-2 and incubating was continued for 4 days at 37° C. This stimulation cycle was performed for a total of three times. For the pMHC multimer readout using 8 different pMHC molecules per condition, a two-dimensional combinatorial coding approach was used as previously described (Andersen et al., 2012) with minor modifications encompassing coupling to 5 different fluorochromes. Finally, multimeric analyses were performed by staining the cells with Live/dead near IR dye (Invitrogen, Karlsruhe, Germany), CD8-FITC antibody clone SK1 (BD, Heidelberg, Germany) and fluorescent pMHC multimers. For analysis, a BD LSRII SORP cytometer equipped with appropriate lasers and filters was used. Peptide specific cells were calculated as percentage of total CD8+ cells. Evaluation of multimeric analysis was done using the FlowJo software (Tree Star, Oregon, USA). In vitro priming of specific multimer+CD8+ lymphocytes was detected by comparing to negative control stimulations.

A further assay relates to HLA-A*24. Put plainly: MHC binding assay by UV-ligand exchange and beta2m ELISA (HLA-A*24). Particulars: peptide exchange yield, binding to HLA-A*24; UV-ligand exchange, beta2m ELISA. Further details: species or system human. From the text:
Candidate peptides for T cell based therapies according to the present invention were further tested for their MHC binding capacity (affinity). The individual peptide-MHC complexes were produced by UV-ligand exchange, where a UV-sensitive peptide is cleaved upon UV-irradiation, and exchanged with the peptide of interest as analyzed. Only peptide candidates that can effectively bind and stabilize the peptide-receptive MHC molecules prevent dissociation of the MHC complexes. To determine the yield of the exchange reaction, an ELISA was performed based on the detection of the light chain (β2m) of stabilized MHC complexes. The assay was performed as generally described in Rodenko et al. (Rodenko et al., 2006).
96 well MAXISorp plates (NUNC) were coated over night with 2 ug/ml streptavidin in PBS at room temperature, washed 4× and blocked for 1 h at 37° C. in 2% BSA containing blocking buffer. Refolded HLA-A*02:01/MLA-001 monomers served as standards, covering the range of 15-500 ng/ml. Peptide-MHC monomers of the UV-exchange reaction were diluted 100 fold in blocking buffer. Samples were incubated for 1 h at 37° C., washed four times, incubated with 2 ug/ml HRP conjugated anti-β2m for 1 h at 37° C., washed again and detected with TMB solution that is stopped with […]. Absorption was measured at 450 nm. Candidate peptides that show a high exchange yield (preferably higher than 50%, most preferred higher than 75%) are generally preferred for a generation and production of antibodies or fragments thereof, and/or T cell receptors or fragments thereof, as they show sufficient avidity to the MHC molecules and prevent dissociation of the MHC complexes.
On the technique in general: An ELISA detects its analyte on a solid surface through an enzyme-linked reagent.

Take “5 (GIVAHIQEV; listed as Homo sapiens) [compound 5]”: the “Wells positive [%]” value in the assay with CD8+ T cells was “+ (<20% = +)”.
With “301 (AYKPGALTF; listed as Homo sapiens) [compound 301]”, the “in vitro immunogenicity: Wells” value with CD8+ T cells is “+ (<20% = +)”.
Same read-out and setting: next, “300 (AYVLRLETL; listed as Homo sapiens) [compound 300]”: “+ (<20% = +)”.
As for “186 (IFPQFLYQF; listed as Homo sapiens) [compound 186]”, in the assay on HLA-A*24, the Peptide exchange entry was “++++ (> = 75% = ++++)”.
As to “292 (GMMTAILGV; listed as Homo sapiens) [compound 292]”, the “in vitro immunogenicity: Wells” value with CD8+ T cells is given as “+ (<20% = +)”.
Consider “29 (YLLDPSITL; listed as Homo sapiens) [compound 29]”, for which the “Wells positive [%]” value in the assay with CD8+ T cells is recorded as “+ (<20% = +)”.
Consider “228 (KYTSWYVAL; listed as Homo sapiens) [compound 228]”, for which the Peptide exchange entry in the assay on HLA-A*24 was “++++ (> = 75% = ++++)”.
Take “285 (HYPPVQVLF; listed as Homo sapiens) [compound 285]”: the “Wells positive [%]” value in the assay with CD8+ T cells is “+ (<20% = +)”.
For the substance “181 (LYLDIINLF; listed as Homo sapiens) [compound 181]”, in the assay with HLA-A*24, the Peptide exchange entry is “++++ (> = 75% = ++++)”.
For “35 (FLLPFSTVYL; listed as Homo sapiens) [compound 35]”, the “Wells positive [%]” value with CD8+ T cells is recorded as “+ (<20% = +)”.
On to “90 (FLQDLEQRL; listed as Homo sapiens) [compound 90]”, for which the “Wells positive [%]” value in the assay with CD8+ T cells is “+ (<20% = +)”.
Regarding “216 (QYSSVFKSL; listed as Homo sapiens) [compound 216]”, in the assay with HLA-A*24, the Peptide exchange entry was “++++ (> = 75% = ++++)”.
Take “272 (QYLQDAYSF; listed as Homo sapiens) [compound 272]”: the Peptide exchange entry with HLA-A*24 is “++++ (> = 75% = ++++)”.
For “277 (VYQGHTALL; listed as Homo sapiens) [compound 277]”, the Peptide exchange entry with HLA-A*24 is on record as “++++ (> = 75% = ++++)”.
On the same count and under the same terms, next, “278 (RYISDQLFTNF; listed as Homo sapiens) [compound 278]”: “++++ (> = 75% = ++++)”.
As for “195 (TYSVSFPMF; listed as Homo sapiens) [compound 195]”, the Peptide exchange entry with HLA-A*24 is “++++ (> = 75% = ++++)”.
Same read-out and setting: the result for “267 (KYMVYPQTF; listed as Homo sapiens) [compound 267]” reads “++++ (> = 75% = ++++)”; that for “172 (TYTTVPRVAF; listed as Homo sapiens) [compound 172]”, “++++ (> = 75% = ++++)”.
For the substance “141 (FLDKVLVAA; listed as Homo sapiens) [compound 141]”, in the assay with CD8+ T cells, the “Wells positive [%]” value is reported as “+ (<20% = +)”.
On to “177 (VYPWLGALL; listed as Homo sapiens) [compound 177]”, for which the Peptide exchange result in the assay with HLA-A*24 was “++++ (> = 75% = ++++)”.
On to “289 (KYPVEWAKF; listed as Homo sapiens) [compound 289]”, for which, in the assay with HLA-A*24, the Peptide exchange result is “++++ (> = 75% = ++++)”.
For the substance “217 (FFPPTRQMGLLF; listed as Homo sapiens) [compound 217]”, in the assay on HLA-A*24, the Peptide exchange result was “++++ (> = 75% = ++++)”.
Regarding “187 (TYLRDQHFL; listed as Homo sapiens) [compound 187]”, in the assay with HLA-A*24, the Peptide exchange result is listed as “++++ (> = 75% = ++++)”.
On to “193 (RFHPTPLLL; listed as Homo sapiens) [compound 193]”, for which, in the assay with HLA-A*24, the Peptide exchange entry is “++++ (> = 75% = ++++)”.
The same measure, in the same setting: next, “227 (IFLDYEAGTLSF; listed as Homo sapiens) [compound 227]”: “++++ (> = 75% = ++++)”.
On the same count and under the same terms, next, “192 (SYALLTYMI; listed as Homo sapiens) [compound 192]”: “++++ (> = 75% = ++++)”.
“293 (FLVDGSWSI; listed as Homo sapiens) [compound 293]”: in the assay with CD8+ T cells, the “in vitro immunogenicity: Wells” value was “+ (<20% = +)”.
On to “207 (AYVVFVSTL; listed as Homo sapiens) [compound 207]”, for which the “Wells positive [%]” value in the assay with CD8+ T cells is on record as “+ (<20% = +)”.
Still for that read-out and setting: next, “31 (TITETTVEV; listed as Homo sapiens) [compound 31]”: “+ (<20% = +)”.
Consider “276 (VYGFQWRHF; listed as Homo sapiens) [compound 276]”, for which the Peptide exchange result in the assay on HLA-A*24 is “++++ (> = 75% = ++++)”.
On to “160 (VYTLDIPVL; listed as Homo sapiens) [compound 160]”, for which the Peptide exchange result in the assay with HLA-A*24 was “++++ (> = 75% = ++++)”.
Regarding “291 (KLDETGNSL; listed as Homo sapiens) [compound 291]”, the “in vitro immunogenicity: Wells” value in the assay with CD8+ T cells is “+ (<20% = +)”.
For the substance “271 (LYHDIFSRL; listed as Homo sapiens) [compound 271]”, the Peptide exchange result with HLA-A*24 is recorded as “++++ (> = 75% = ++++)”.
On the same count and under the same terms, next, “166 (YYVESGKLF; listed as Homo sapiens) [compound 166]”: “++++ (> = 75% = ++++)”.
For “196 (LYIDRPLPYL; listed as Homo sapiens) [compound 196]”, the “Wells positive [%]” value with CD8+ T cells is reported as “++++ (> = 70% = ++++)”.
“280 (RYPDNLKHLYL; listed as Homo sapiens) [compound 280]”: the Peptide exchange result in the assay with HLA-A*24 is on record as “++++ (> = 75% = ++++)”.
Regarding “296 (TYVDSSHTI; listed as Homo sapiens) [compound 296]”, in the assay on CD8+ T cells, the “in vitro immunogenicity: Wells” value is “+ (<20% = +)”.
Regarding “202 (VYWDSAGAAHF; listed as Homo sapiens) [compound 202]”, in the assay on HLA-A*24, the Peptide exchange entry is on record as “++++ (> = 75% = ++++)”.
On the same count and under the same terms, next, “161 (IYLVSIPEL; listed as Homo sapiens) [compound 161]”: “++++ (> = 75% = ++++)”.
For “173 (IYSWILDHF; listed as Homo sapiens) [compound 173]”, the Peptide exchange result in the assay with HLA-A*24 is “++++ (> = 75% = ++++)”.
Same read-out and setting: the result for “274 (AYLHSHALI; listed as Homo sapiens) [compound 274]” reads “++++ (> = 75% = ++++)”; that for “168 (KYQDILETI; listed as Homo sapiens) [compound 168]”, “++++ (> = 75% = ++++)”.
The same measure, in the same setting: the result for “179 (MYDSYWRQF; listed as Homo sapiens) [compound 179]” reads “++++ (> = 75% = ++++)”; that for “282 (KFVDSTFYL; listed as Homo sapiens) [compound 282]”, “++++ (> = 75% = ++++)”.
The same measure, in the same setting: next, “210 (IYTMIYRNL; listed as Homo sapiens) [compound 210]”: “++++ (> = 75% = ++++)”.
Consider “184 (VFQNFPLLF; listed as Homo sapiens) [compound 184]”, for which, in the assay with HLA-A*24, the Peptide exchange result was “++++ (> = 75% = ++++)”.
With “211 (YYLEVGKTLI; listed as Homo sapiens) [compound 211]”, the Peptide exchange result with HLA-A*24 was “++++ (> = 75% = ++++)”.
As to “175 (YYEVHKELF; listed as Homo sapiens) [compound 175]”, the Peptide exchange entry in the assay on HLA-A*24 is reported as “++++ (> = 75% = ++++)”.
